Source: PubChem BioAssay (NCI)
Where “and” joins values, the source holds several entries; their conditions need not be identical. Identical values can stand only once.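 Each compound was tested at five concentrations against cells in 96-well plates for 48 hours. At the GI50, growth is halved. Definition used: TGI = concentration required for complete inhibition of growth.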

Legend:
Experiment in all cases: growth of human tumour cells (NCI), 48 h
A498 renal = system: A498 renal
COLO 205 colon = system: COLO 205 colon
EKVX NSCLC = system: EKVX NSCLC
HCC-2998 colon = system: HCC-2998 colon
HOP-62 NSCLC = system: HOP-62 NSCLC
MCF7 breast = system: MCF7 breast
NCI-H23 lung = system: NCI-H23 lung
NCI/ADR-RES ovarian = system: NCI/ADR-RES ovarian
OVCAR-8 ovarian = system: OVCAR-8 ovarian
SK-MEL-5 melanoma = system: SK-MEL-5 melanoma

SMILES	TGI (A498 renal)	TGI (COLO 205 colon)	TGI (EKVX NSCLC) [µM]	TGI (HCC-2998 colon) [µM]	TGI (HOP-62 NSCLC) [µM]	TGI (MCF7 breast) [µM]	TGI (NCI-H23 lung) [µM]	TGI (NCI/ADR-RES ovarian) [µM]	TGI (OVCAR-8 ovarian) [µM]	TGI (SK-MEL-5 melanoma)	GI50 (A498 renal)	GI50 (COLO 205 colon)	GI50 (EKVX NSCLC)	GI50 (HCC-2998 colon)	GI50 (HOP-62 NSCLC)	GI50 (MCF7 breast)	GI50 (NCI-H23 lung)	GI50 (NCI/ADR-RES ovarian)	GI50 (OVCAR-8 ovarian)	GI50 (SK-MEL-5 melanoma)
CCCS(=O)(=O)Nc1ccc(Nc2c3ccccc3nc3ccccc23)c(OC)c1	6 µM	20.8 µM	28.8	6.3	5.72	16.3	8.26	37.1	5.82	14.7 µM										
Cc1c[n+](Cc2ccc3ccccc3c2)cn1Cc1ccc2ccccc2c1	4.29 µM	2.62 µM	9.71	2.83	3.8	3.5	3.97	> 100	4.01	1.94 µM	0.954 µM	1.12 µM	2.15 µM	1.34 µM	1.61 µM	1.67 µM	1.49 µM	> 100 µM	1.89 µM	0.688 µM
COc1ccccc1/C=C/c1cnccn1	> 10 µM	> 10 µM	> 10	> 10	> 10	> 10	> 10	> 10	> 10	> 10 µM										
Nc1nc(Nc2ccccc2)c2ncn(Cc3cc4c(cc3Br)OCO4)c2n1	29.7 µM	0.375 µM	> 100	> 32.7	7.65	31.9	> 100	> 37.5	0.832	0.278 µM	0.0546 µM	0.0716 µM	< 0.0276 µM	0.205 µM	0.0675 µM	< 0.01 µM	0.0187 µM	0.0565 µM	0.17 µM	0.0485 µM
Nc1nc(Br)nc2c1ncn2C1CC(O)C(CO)O1 (configuration not stated)	99.4 µM	> 100 µM	> 100	> 100	> 100	> 100	> 100	> 100	> 100	> 100 µM	21 µM	13.7 µM	> 100 µM	4.55 µM	4.68 µM	1.26 µM	1.08 µM	0.384 µM	0.18 µM	29.3 µM
CCN1C(=O)N(CC)C2C1NC(=S)N2/N=C/C=C/c1cccs1 (configuration not stated)	0.539 µM	1.17 µM	> 100	> 100	> 100	> 100	> 100	> 100	> 100	5.93 µM	0.0855 µM	0.267 µM	0.464 µM	0.709 µM	0.414 µM	0.26 µM	0.658 µM	0.296 µM	0.548 µM	0.274 µM
Cc1[nH]n(-c2cccc(Cl)c2)c(=O)c1/C=C1\C=Nc2ccc(Br)cc21	5.18 µM	4.29 µM	73.3	> 100	5.14	> 100	26.4	16	13.8	> 100 µM	2.08 µM	2 µM	5.45 µM	14.3 µM	2.33 µM	5.95 µM	6.65 µM	3.4 µM	3.52 µM	9.48 µM
O=C(Nc1ccc(Cl)cc1F)c1cc(Br)ccc1O	0.709 µM	21.5 µM	> 26.1	13.3	7.96	> 100	4.69	14.6	> 37.4	1.07 µM	0.23 µM	7.65 µM	1.46 µM	2.73 µM	1.25 µM	1.26 µM	0.659 µM	1.39 µM	1.13 µM	0.3 µM
COC(=O)[C@@H](NC(=O)[C@@H](OC)[C@@H]1Cc2cc3cc(OC4CC(OC5CC(O)C(O)C(C)O5)C(O)C(C)O4)c(C)c(O)c3c(O)c2C(=O)[C@H]1OC1CC(OC2CC(OC3CC(C)(O)C(O)C(C)O3)C(O)C(C)O2)C(O)C(C)O1)C(C)C (some centres not stated)	0.333 µM	> 32.5 µM	> 32.5	> 32.5	> 32.5	> 32.5	13.5	> 32.5	> 32.5	0.408 µM	0.0869 µM	0.137 µM	0.162 µM	0.206 µM	0.0824 µM	0.0538 µM	0.144 µM	23.7 µM	0.15 µM	0.0727 µM
Nc1ccncc1/C=C1/C(=O)Nc2ccccc21	52.7 µM	> 100 µM	> 100	59.9	81.6	> 100	> 100	> 100	> 100	> 100 µM	18.7 µM	19.8 µM	47.2 µM	25.3 µM	23.6 µM	26.6 µM	31.9 µM	35.9 µM	62.5 µM	28 µM
CC(=O)Oc1ccc(Nc2c3ccccc3nc3ccccc23)cc1	1.88 µM	2.33 µM	25.3	14.3	3.48	10.1	2.98	12.1	4.14	2.15 µM	0.322 µM	0.861 µM	3.05 µM	1.97 µM	0.971 µM	0.476 µM	1.17 µM	2.25 µM	1.07 µM	0.984 µM
O=C(Nc1cccc(Cl)c1)c1cc2ccccc2cc1O	4.34 µM and 4.64 µM	> 100 µM and 79 µM	> 100	> 100		> 100			> 100	4.15 µM and 2.5 µM	0.742 µM and 1.08 µM	19.1 µM and 13.6 µM	2.76 µM and 2.05 µM	3.9 µM and 3.39 µM	2.8 µM and 2.47 µM	2.66 µM and 2.12 µM	1.76 µM and 1.03 µM	2.62 µM and 2.06 µM	2.94 µM and 3.39 µM	1.24 µM and 0.661 µM
O/N=C\c1c(O)ccc2ccccc12	> 100 µM	> 100 µM	> 100	> 100	> 100	> 100	> 100	> 100	> 100	> 100 µM										
O=C(O)c1ccccc1-c1ccccc1C(=O)Nc1ccc2c(c1)Cc1cc(F)ccc1-2	46 µM	32.7 µM	77.3	33.8	87.4	85.5	36.5	> 100	> 100	47.2 µM										
